# Experimental data published in US9090593B2, “Bicyclic compounds as Pim inhibitors” (AMGEN INC., priority 2010, dated 2015).
# pIC50: −log10 of the molar value.
# Assays:
# [1] = molecular target: T1, full length recombinant Pim-1 protein (Homo sapiens, UniProt P11309); test: Pim-1 enzyme assay (HTRF, phosphorylation of biotinylated-BAD (S112) peptide); type: biochemical; conditions: read-out: Pim_1_IC50
# T1 construct: by full length recombinant Pim-1, Pim-2, or Pim-3 protein; hexahistidine tag followed by a thrombin cleavage site (N); made in house; host or cells: Sf9 (baculovirus) or E. coli (pET28)
# Description: (§1) These cDNAs were used as templates in PCR reactions to produce full-length DNA clones of the PIMs. […] PCR products were digested with […] and EcoRI for Pim-1 and BamHI and EcoRI for Pim-2 and ligated into a modified baculovirus transfer vector (pFastBac1) cleaved with BamHI and EcoRI. For bacterial expression, the same cleaved PCR products encoding Pim-1 or Pim-2 were ligated into a modified E. coli expression vector pET28(a) cleaved with BamHI and EcoRI Amino-terminal hexahistidine tags followed by a thrombin cleavage site were previously added to the vectors using standard methods of molecular biology. Recombinant baculoviruses expressing Pim-1 or Pim-2 were made using standard methods (Fastbac manual, Invitrogen, Carlsbad, Calif.). Infection of Sf9 cells was done at an m.o.i. of greater than 5 for 24-48 h. Cells were harvested by centrifugation and frozen at −80 C. For E. coli expression, cells carrying pET28-His6-Th-Pim-1 or pET28-His6-Th-Pim-2 were picked from a single colony and grown o/n in LB media. The o/n culture was used to inoculate a 2 liter flask with 500 mL media. This was grown o/n and used to inoculate 15-20 liters of Terrific Broth in a New Brunswick Scientific fermentor. The E. coli were grown at 37° C. to and OD600>1.6. The temperature was dropped to 18° C. and o/n expression was induced with 0.5 mM IPTG. Cells were harvested by centrifugation and frozen at −80° C.
# (§2) This step was repeated 3× and the resin was transferred to a 2.5 cm glass column. Ten column volumes of wash buffer (0.05 M HEPES, pH 8.0, 0.1 M NaCl, 0.01 M 2-mercaptoethanol, 10% (w/v) glycerol) were applied to the resin followed by 10 column volumes of elution buffer (0.05 M HEPES, pH 8.0, 0.25 M NaCl, 0.01 M 2-mercaptoethanol, 10% (w/v) glycerol, 0.1 M imidazole). Fractions were analyzed by SDS-PAGE and those containing the protein of interest were pooled and concentrated. The concentrated protein was applied to an Amersham Superdex 75 (XK 26/60) column equilibrated in 0.025 M Tris-HCl, pH 7.5, 0.1 M NaCl, 0.01 M 2-mercaptoethanol, 10% (w/v) glycerol. […] Fractions containing the monomeric protein of interest were pooled, concentrated to ˜2 mg/mL, and stored at −80° C.
# (§3) The phosphorylation of biotinylated-BAD (S112) peptide by full length recombinant Pim-1, Pim-2, or Pim-3 protein was detected with streptavidin:Allophycocyanin (APC) conjugate and a europium (Eu) labeled antibody directed against phosphorylated-BAD (S112). […] The fluorescence is directly proportional to the amount of phosphorylated BAD peptide present in the reaction.
# (§4) A reference compound was included on each assay plate in order to validate that plate; on one plate of every assay run, two additional reference compounds were included.
# (§5) The final buffer conditions were as follows: 60 mM Hepes, pH 7.0, 0.05% BSA, 2 mM DTT. […] The reaction was stopped by the addition of 3 mM EDTA, and fluorescence was measured by an HTRF® Rubystar microplate reader. For each plate, percent of control (POC) values were calculated for each well. Values for the IC50 IP were estimated using a standard 4-parameter logistic model.
# [2] = molecular target: T2, full length recombinant Pim-2 protein (Homo sapiens, UniProt Q9P1W9); test: Pim-2 enzyme assay (HTRF, phosphorylation of biotinylated-BAD (S112) peptide); type: biochemical; conditions: read-out: Pim2_IC50
# T2 construct: by full length recombinant Pim-1, Pim-2, or Pim-3 protein; hexahistidine tag followed by a thrombin cleavage site (N); made in house; host or cells: Sf9 (baculovirus) or E. coli (pET28)
# Description: as §1, §2, §3, §4, §5
# T1 sequence (P11309 whole entry): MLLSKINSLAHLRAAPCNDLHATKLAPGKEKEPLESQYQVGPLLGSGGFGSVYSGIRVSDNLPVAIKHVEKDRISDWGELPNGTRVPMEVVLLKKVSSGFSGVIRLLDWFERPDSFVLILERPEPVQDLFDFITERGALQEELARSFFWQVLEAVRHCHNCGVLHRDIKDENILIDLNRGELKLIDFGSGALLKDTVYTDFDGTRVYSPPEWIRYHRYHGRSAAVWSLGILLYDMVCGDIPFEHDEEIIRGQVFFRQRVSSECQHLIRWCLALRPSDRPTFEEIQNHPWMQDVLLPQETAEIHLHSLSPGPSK
# T2 sequence (Q9P1W9 whole entry): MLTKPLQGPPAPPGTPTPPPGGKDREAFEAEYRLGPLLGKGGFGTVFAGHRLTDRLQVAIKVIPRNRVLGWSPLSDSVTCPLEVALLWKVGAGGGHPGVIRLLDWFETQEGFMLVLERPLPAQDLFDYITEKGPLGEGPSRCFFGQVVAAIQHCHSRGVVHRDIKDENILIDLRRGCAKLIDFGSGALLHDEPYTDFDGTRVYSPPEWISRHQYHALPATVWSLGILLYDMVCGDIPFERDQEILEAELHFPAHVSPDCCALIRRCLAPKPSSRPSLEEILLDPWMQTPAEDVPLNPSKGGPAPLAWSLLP
pIC50 [1],pIC50 [2],SMILES
7.70,7.17,"CN(C)c1nc(-c2n[nH]c3ccc(Nc4c(F)cccc4F)cc23)cc(=O)[nH]1 [Example 285, 6-(5-((2,6-difluorophenyl)amino)-1H-indazol-3-yl)-2-(dimethylamino) pyrimidin-4(3H)-one]"
6.24,< 6.00,"COc1cnnc(-c2c[nH]c3ccc(-c4ccccc4F)nc23)c1 [Example 286, 5-(2-fluorophenyl)-3-(5-methoxypyridazin-3-yl)-1H-pyrrolo[3,2-b]pyridine]"
6.44,6.01,"NC1CCN(c2cc(-c3c[nH]c4ccc(-c5ccccc5F)nc34)nc(O)n2)CC1 [Example 288, 4-(4-aminopiperidin-1-yl)-6-(5-(2-fluorophenyl)-1H-pyrrolo[3,2-b]pyridin-3-yl)pyrimidin-2-ol]"
7.47,7.12,N#Cc1cc(-c2ccc3[nH]cc(-c4cncc(O[C@@H]5CCCNC5)n4)c3c2)ccc1F [Example 295]
7.43,7.26,N#Cc1ccc(-c2ccc3[nH]cc(-c4cncc(O[C@@H]5CCCNC5)n4)c3c2)cc1F [Example 296]
7.51,6.63,c1cc(OC2CCCC2)nc(-c2ccc3[nH]cc(-c4cncc(O[C@@H]5CCCNC5)n4)c3c2)c1 [Example 298]
7.38,6.94,c1cnn(-c2cnc(-c3ccc4[nH]cc(-c5cncc(O[C@@H]6CCCNC6)n5)c4c3)cn2)c1 [Example 300]
7.28,6.21,CC1CCN(c2cccc(-c3ccc4[nH]cc(-c5cncc(O[C@@H]6CCCNC6)n5)c4c3)n2)CC1 [Example 304]
6.63,6.29,CCNC(=O)c1ccc(C)c(-c2ccc3[nH]cc(-c4cncc(O[C@@H]5CCCNC5)n4)c3c2)c1 [Example 313]
6.54,6.37,Cc1ccc(C(=O)NC2CCC2)cc1-c1ccc2[nH]cc(-c3cncc(O[C@@H]4CCCNC4)n3)c2c1 [Example 314]
7.28,6.53,COc1ccc(Cl)cc1-c1ccc2[nH]cc(-c3cncc(O[C@@H]4CCCNC4)n3)c2c1 [Example 317]
7.46,6.46,c1cc2[nH]cc(-c3cncc(O[C@@H]4CCCNC4)n3)c2cc1-c1cncc(OC2CCCC2)n1 [Example 318]
7.62,7.17,CN(C)c1cnc(-c2ccc3[nH]cc(-c4cncc(O[C@@H]5CCCNC5)n4)c3c2)cn1 [Example 319]
7.51,7.00,CC(C)c1ccc(-c2ccc3[nH]cc(-c4cncc(O[C@@H]5CCCNC5)n4)c3c2)cc1 [Example 322]
7.68,7.34,O=C(O)c1cccc(-c2ccc3[nH]cc(-c4cncc(O[C@@H]5CCCNC5)n4)c3c2)c1 [Example 325]
7.55,6.85,COc1ncccc1-c1ccc2[nH]cc(-c3cncc(O[C@@H]4CCCNC4)n3)c2c1 [Example 328]
7.08,6.29,COc1ccc(OC)c(-c2ccc3[nH]cc(-c4cncc(O[C@@H]5CCCNC5)n4)c3c2)c1 [Example 329]
7.27,6.57,Cc1cccc(-c2ccc3[nH]cc(-c4cncc(O[C@@H]5CCCNC5)n4)c3c2)c1C [Example 330]
7.37,6.81,CC(C)Cc1ccc(-c2ccc3[nH]cc(-c4cncc(O[C@@H]5CCCNC5)n4)c3c2)cc1 [Example 332]
7.14,6.83,CS(=O)(=O)Nc1cc(-c2ccc3[nH]cc(-c4cncc(O[C@@H]5CCCNC5)n4)c3c2)cnc1Cl [Example 334]
7.25,6.23,Nc1ccc(Oc2ncccc2-c2ccc3[nH]cc(-c4cncc(O[C@@H]5CCCNC5)n4)c3c2)cc1 [Example 337]
7.38,6.59,c1cc2[nH]cc(-c3cncc(O[C@@H]4CCCNC4)n3)c2cc1-c1cncc(C2CCCN2)c1 (some centres unmarked) [Example 340]
6.80,< 6.00,COc1cc(C#N)c(-c2ccc3[nH]cc(-c4cncc(O[C@@H]5CCCNC5)n4)c3c2)cc1OC(C)C [Example 342]

pIC50 [1],pIC50 [2],SMILES
6.98,6.44,COc1cc(C#N)cc(-c2ccc3[nH]cc(-c4cncc(O[C@@H]5CCCNC5)n4)c3c2)c1OC [Example 346]
6.44,< 6.00,CCCOc1c(OC)cc(C#N)cc1-c1ccc2[nH]cc(-c3cncc(O[C@@H]4CCCNC4)n3)c2c1 [Example 348]
7.52,6.54,CC(=O)Nc1cc(-c2ccc3[nH]cc(-c4cncc(O[C@@H]5CCCNC5)n4)c3c2)cc(C(F)(F)F)c1 [Example 349]
7.52,6.88,CC(C)Oc1ccc(-c2ccc3[nH]cc(-c4cncc(O[C@@H]5CCCNC5)n4)c3c2)cc1C#N [Example 352]
6.80,6.05,Cc1ccc(C(F)(F)F)cc1-c1ccc2[nH]cc(-c3cncc(O[C@@H]4CCCNC4)n3)c2c1 [Example 353]
6.08,< 6.00,COc1cc(C#N)cc(-c2ccc3[nH]cc(-c4cncc(O[C@@H]5CCCNC5)n4)c3c2)c1OC(C)C [Example 354]
7.24,6.60,FC(F)(F)COc1cncc(-c2n[nH]c3ccc(-c4cncc(C5CC5)n4)cc23)n1 [Example 363]
6.90,< 6.00,c1cc(C2CC2)nc(-c2ccc3[nH]cc(-c4cncc(C5CC5)n4)c3c2)n1 [Example 370]
7.59,6.95,c1cc(C2CC2)nc(-c2c[nH]c3ccc(-c4cncc(C5CC5)n4)cc23)n1 [Example 371]
7.12,6.61,Cn1nccc1-c1ccc2[nH]nc(-c3cncc(O[C@@H]4CCCNC4)n3)c2c1 [Example 375]
7.68,6.56,COc1cncc(-c2n[nH]c3ccc(-c4nccc(N5CCOC[C@@H]5C)n4)cc23)n1 [Example 376]
7.26,6.64,COc1cncc(-c2n[nH]c3ccc(-c4nccc(C(C)C)n4)cc23)n1 [Example 377]
6.20,< 6.00,COc1cncc(-c2n[nH]c3ccc(-c4cc(C(F)(F)F)ccn4)cc23)n1 [Example 378]
7.17,< 6.00,CC(C)Oc1cncc(-c2n[nH]c3ccc(-c4nccc(N5CCOC[C@@H]5C)n4)cc23)n1 [Example 380]
7.30,6.47,COc1cncc(-c2n[nH]c3ccc(-c4nccc(NC5CC5)n4)cc23)n1 [Example 382]
7.25,6.34,FCCOc1cncc(-c2n[nH]c3ccc(-c4nccc(C5CC5)n4)cc23)n1 [Example 385]
7.03,6.64,CC(C)Oc1cncc(-c2n[nH]c3ccc(-c4cnn(C(C)C)c4)cc23)n1 [Example 387]
6.94,6.91,COc1cncc(-c2n[nH]c3ccc(-c4cnn(C(C)C)c4)cc23)n1 [Example 388]
6.76,6.70,O=C(NC1CC1)c1ccc(F)c(-c2ccc3[nH]nc(-c4cncc(OCCF)n4)c3c2)c1 [Example 389]
6.92,6.62,NC(=O)c1ccc(F)c(-c2ccc3[nH]nc(-c4cncc(OCCF)n4)c3c2)c1 [Example 390]
< 6.00,< 6.00,c1cc2[nH]nc(-c3cncc(O[C@@H]4CNCCC45CC5)n3)c2cc1N1CCOCC1 [Example 399]
7.52,7.24,C[C@@H]1CN(c2ccc3[nH]nc(-c4cncc(O[C@H]5CNCCC56CC6)n4)c3c2)CCO1 [Example 401]
7.52,7.41,C[C@H]1COCCN1c1ccc2[nH]nc(-c3cncc(O[C@H]4CNCCC45CC5)n3)c2c1 [Example 402]
